Test results as given in patent publication US11091476B2, “Protein kinase inhibitors, preparation method and medical use thereof” (Gan & Lee Pharmaceuticals, priority 2015, dated 2021).

Assays:
Assay type in all cases: biochemical
[1] = molecular target: CDK6/CyclinD3 (Homo sapiens (Human), UniProt Q00534); assay: CDK kinase inhibitory activity, ADP-Glo Kinase Assay, CDK6/CyclinD3; conditions: for CDK1/CDK6 / CDK9/CDK6 / Pim-1/CDK6: ratio of IC50s; for CDK1/CDK6: selectivity for CDK6 over CDK1; for CDK9/CDK6: selectivity for CDK6 over CDK9; for Pim-1/CDK6: selectivity for CDK6 over Pim-1
Method: (§1) Measurement of CDK kinase inhibitory activity of the compounds of this disclosure.
(§2) In vitro inhibitory effect of the compounds of the disclosure on CDK (CDK1, CDK4 and CDK6) kinase activity was tested by the following method.
(§3) 1.1 Instrument and Kit Information
(§4) 1.2 Experimental Preparation • 1.2.1 Preparation of Kinase Reaction Buffer I: The 5×Reaction Buffer A (Promega; V307A-C) provided in the kit was mixed and diluted with MILLI-Q® H2O and 0.1 M DTT (dithiothreitol) to give 4× kinase buffer, and then MILLI-Q® H2O was further added to finally formulate the solution into 1× Kinase buffer.
(§5) 1 μl of 10 mM standard substance stock solution was taken and added to 9 μl of kinase reaction buffer I and mixed well; then 90 μl of kinase reaction buffer I was added and mixed well; then 100 μl of kinase reaction buffer I was added and mixed well. The final concentration was 50 μM. • b. 40 μl of kinase reaction buffer II was added into B2 to B10 of a 96-well plate, and 50 μl of the above solution was added into B1; • c. 10 μl of solution was taken from well B1, added into B2, and mixed well; then 10 μl of the resulting solution was taken and added into B3, and dilution was carried out in sequence to B9, so as to obtain control solutions that are diluted by 5-fold sequentially. • (2) Preparation of test compound solution: • a. Test compound solutions at a certain concentration were taken, respectively, diluted with kinase reaction buffer I to a final concentration of 50 μM compound solution; • b. 40 μl of kinase reaction buffer II was added into H2 to H10 of the 96-well plate; and 50 μl of the above solution was added into H1; • c. 10 μl of solution was taken from well H1, added into H2, and mixed well; then 10 μl of the resulting solution was taken and added into H3, and dilution was carried out in sequence to H9, so as to obtain test compound solutions that are diluted by 5-fold sequentially. • 1.2.4 Preparation of a mixed solution of reaction substrate and ATP: • a. Preparation of ATP solution: • 200 μl of 0.1 mM ATP solution: 2 μl of 10 mM ATP was added to 198 μl of kinase reaction buffer I; • 300 μl of 50 μM ATP solution: 150 μl of kinase reaction buffer I was added to 150 μl of the above 0.1 mM ATP solution; • b. Preparation of 300 μl of reaction substrate solution: • 150 μl 1 μg/μl reaction substrate stock solution was added to 150 μl kinase reaction buffer I, and mixed well; • c. The above a/b solutions were mixed to obtain mixed solutions, respectively.
(§6) 1.3 Experimental process: • 1.3.1: 2 μl of compound solutions of various concentrations were taken, added to a 384-well plate, and centrifuged 3 minutes; • 1.3.2: 4 μl of kinase solution was added to each well, centrifuged at 5000 rpm and 18° C. for 10 minutes, and shaken on a plate shaker for 10 minutes; • 1.3.3: 4 μl of mixed solution of substrate and ATP was added to each well, centrifuged at 5000 rpm and 18° C. for 10 minutes, and shaken on a plate shaker at 37° C. for 90 minutes; • 1.3.4: The 384-well plate was taken out, and allowed to stand to room temperature; • 1.3.5: 10 μl of ADP-GLO™ reagent was added to each well, centrifuged at 5000 rpm and 18° C. for 18 minutes, and shaken on a plate shaker at 25° C. for 40 minutes, and then the reaction was stopped; • 1.3.6: 20 μl of kinase detection reagent was added to each well, centrifuged at 5000 rpm and 18° C. for 10 minutes, and shaken on a plate shaker at 25° C. for 30 minutes; and • 1.3.7: M1000pro MICROPLATE READER was used to read […] values.
(§7) The inhibition rate of each compound at each concentration point was calculated by the formula as follows and curve fitting was performed by GraphPad Prism 5 software to obtain the IC50 value.

[2] = molecular target: CDK9/CyclinD3 (Homo sapiens (Human), UniProt P50750); assay: Kinase inhibitory activity, ADP-Glo Kinase Assay, CDK9/CyclinD3
Method: as §3, §4, §5, §6, §7

[3] = molecular target: CDK1/CyclinA2 (Homo sapiens (Human), UniProt P06493); assay: CDK kinase inhibitory activity, ADP-Glo Kinase Assay, CDK1/CyclinA2
Method: as §1, §2, §3, §4, §5, §6, §7

[4] = molecular target: Pim-1 (Homo sapiens (Human), UniProt P11309); assay: Kinase inhibitory activity on Pim-1
Method: as §4, §5, §6, §7

| SMILES | IC50 [1] | CDK1/CDK6 [1] | CDK9/CDK6 [1] | IC50 [2] | IC50 [3] | Pim-1/CDK6 [1] | IC50 [4] |
| --- | --- | --- | --- | --- | --- | --- | --- |
| CCN1CCC(c2ccc(Nc3ncc(F)c(-c4cc(F)c5c(c4)C(C)(CC)C(C)=N5)n3)nc2)CC1 (centres unmarked) [Example 26, 4-(3-ethyl-7-fluoro-2,3-dimethyl-3H-indol-5-yl)-N-(5-(1-ethylpiperidin-4-yl)pyridin-2-yl)-5-fluoropyrimidine-2-amino] | 12.5 nM | 17.27 | 0.88 | 11 nM | – | – | – |
| CC1=Nc2c(F)cc(-c3nc(Nc4ccc(N5CCN(CCO)CC5)cn4)ncc3F)cc2C12CCCC2 [Example 28, 2-(4-(6-((5-fluoro-4-(7′-fluoro-2′-methylspiro[cyclopentane-1,3′-indol]-5′-yl)pyrimidin-2-yl)amino)pyridin-3-yl)piperazin-1-yl)ethanol] | 6.24 nM | 52.63 | 0.15 | 0.96 nM | 328 nM | – | – |
| CC1=Nc2ccc(-c3nc(Nc4ccc(N5CCN(C)CC5)cn4)ncc3F)cc2C12CCCC2 [Example 25, 5-Fluoro-N-(5-(4-methylpiperazin-1-yl)pyridin-2-yl)-4-(2′-methylspiro [cyclopentane-1,3′-indol]-5′-yl)pyrimidine-2-amino] | 8.78 nM | 47.51 | 0.12 | 1.09 nM | 417 nM | – | – |
| CCN1CCN(Cc2ccc(Nc3ncc(F)c(-c4cc(F)c5c(c4)C4(CCCC4)C(C)=N5)n3)nc2)CC1 [Example 3] | 79.1 nM | – | – | – | – | – | 198 nM |
| CCC1(C)C(C)=Nc2c(F)cc(-c3nc(Nc4ccc(C5CCN(C)CC5)cn4)ncc3F)cc21 (centres unmarked) [Example 24, 4-(3-ethyl-7-fluoro-2,3-dimethyl-3H-indol-5-yl)-5-fluoro-N-(5-(1-methylpiperidin-4-yl)pyridin-2-yl)pyrimidine-2-amino] | 12.9 nM | 5.94 | 0.13 | 1.74 nM | 76.4 nM | 5.66 | 72.8 nM |
| CC1=Nc2c(F)cc(-c3nc(Nc4ccc(C5CCN(CCO)CC5)cn4)ncc3F)cc2C12CCCC2 [Example 30, 2-(4-(6-((5-fluoro-4-(7′-fluoro-2′-methylspiro[cyclopentane-1,3′-indol]-5′-yl)pyrimidin-2-yl)amino)pyridin-3-yl)piperidin-1-yl)ethanol] | 0.49 nM | 360.37 | 0.88 | 0.43 nM | 177 nM | – | – |
| CC1=Nc2ccc(-c3nc(Nc4ccc(N5CCNCC5)cn4)ncc3F)cc2C12CCCC2 [Example 14, 5-fluoro-4-(2′-methylspiro[cyclopentane-1,3′-indol]-5′-yl)-N-(5-(piperazin-1-yl)pyridin-2-yl)pyrimidine-2-amino] | 4.07 nM | 57.40 | – | – | 234 nM | 7.03 | 28.6 nM |
| CC1=Nc2ccc(-c3nc(Nc4ccc(C5CCN(C)CC5)cn4)ncc3F)cc2C12CCCC2 [Example 23] | 4.53 nM | 11.10 | – | – | 50.3 nM | – | – |
| CCN1CCC(c2ccc(Nc3ncc(F)c(-c4ccc5c(c4)C4(CCCC4)C(C)=N5)n3)nc2)CC1 [Example 21, N-(5-(1-ethylpiperidin-4-yl)pyridin-2-yl)-5-fluoro-4-(2′-methylspiro[cyclopentane-1,3′-indol]-5′-yl)pyrimidine-2-amino] | 27.7 nM | 4.89 | – | – | 135 nM | – | – |
| CCN1CCN(c2ccc(Nc3ncc(F)c(-c4ccc5c(c4)C4(CCCC4)C(C)=N5)n3)nc2)CC1 [Example 22, N-(5-(4-ethylpiperazin-1-yl)pyridin-2-yl)-5-fluoro-4-(2′-methylspiro[cyclopentane-1,3′-indol]-5′-yl)pyrimidine-2-amino] | 52.5 nM | 17.43 | 0.009 | 0.5 nM | 915 nM | – | – |
| CC1=Nc2c(F)cc(-c3nc(Nc4ccc(CN5CCN(C)CC5)cn4)ncc3F)cc2C12CCCC2 [Example 43, 5-Fluoro-4-(7′-fluoro-2′-methylspiro[cyclopentane-1,3′-indol]-5′-yl)-N-(5-((4-methylpiperazin-1-yl)methyl)pyridin-2-yl)pyrimidine-2-amino] | 0.9 nM | 298.78 | – | – | 269 nM | – | – |

Further lines, results first:

| IC50 [1] | CDK1/CDK6 [1] | CDK9/CDK6 [1] | IC50 [2] | IC50 [3] | Pim-1/CDK6 [1] | IC50 [4] | SMILES |
| --- | --- | --- | --- | --- | --- | --- | --- |
| 3.26 nM | 25.71 | 1.40 | 4.58 nM | – | 141.53 | 461 nM | CCC1(C)C(C)=Nc2c(F)cc(-c3nc(Nc4ccc(N5CCNCC5)cn4)ncc3F)cc21 (centres unmarked) [Example 7, 4-(3-ethyl-7-fluoro-2,3-dimethyl-3H-indol-5-yl)-5-fluoro-N-(5-(piperazin-1-yl)pyridin-2-yl)pyrimidine-2-amino] |
| 43 nM | 51.68 | 5.69 | 245 nM | – | 5.12 | 220 nM | CC1=Nc2c(F)cc(-c3nc(Nc4ccc(N5CCNCC5)cn4)ncc3F)cc2C1(C)C [Example 1, 5-fluoro-4-(7-fluoro-2,3,3-trimethyl-3H-indol-5-yl)-N-(5-(piperazin-1-yl)pyridin-2-yl)pyrimidine-2-amino] |
| 47.1 nM | 9.25 | 0.57 | 27 nM | 436 nM | – | – | CCN1CCN(Cc2ccc(Nc3ncc(F)c(-c4cc(F)c5c(c4)C(CC)(CC)C(C)=N5)n3)nc2)CC1 [Example 10] |
| 9.02 nM | 10.61 | 1.81 | 16.4 nM | – | 76.10 | 686 nM | CCC1(CC)C(C)=Nc2c(F)cc(-c3nc(Nc4ccc(N5CCN(C)CC5)cn4)ncc3F)cc21 [Example 16, 4-(3,3-diethyl-7-fluoro-2-methyl-3H-indol-5-yl)-5-fluoro-N-(5-(4-methylpiperazin-1-yl)pyridin-2-yl)pyrimidine-2-amino] |
| 87.6 nM | 16.49 | 0.003 | 0.24 nM | 1440 nM | – | – | CC1=Nc2c(F)cc(-c3nc(Nc4ccc(N5CCN(C)CC5)cn4)ncc3F)cc2C12CCCC2 [Example 20, 5-Fluoro-4-(7′-fluoro-2′-methylspiro[cyclopentane-1,3′-indol]-5′-yl)-N-(5-(4-methylpiperazin-1-yl)pyridin-2-yl)pyrimidine-2-amino] |
| 3.15 nM | 26.20 | – | – | 82.4 nM | – | – | CCC1(CC)C(C)=Nc2c(F)cc(-c3nc(Nc4ccc(N5CCNCC5)cn4)ncc3F)cc21 [Example 29, 4-(3,3-diethyl-7-fluoro-2-methyl-3H-indol-5-yl)-5-fluoro-N-(5-(piperazin-4-yl)pyridin-2-yl)pyrimidine-2-amino] |
| 2.74 nM | 69.29 | 0.36 | 1 nM | 190 nM | – | – | CCC1(C)C(C)=Nc2c(F)cc(-c3nc(Nc4ccc(N5CCN(C)CC5)cn4)ncc3F)cc21 (centres unmarked) [Example 18, 4-(3-ethyl-7-fluoro-2,3-dimethyl-3H-indol-5-yl)-5-fluoro-N-(5-(4-methylpiperazin-1-yl)pyridin-2-yl)pyrimidine-2-amino] |
